From paper PMC6628435, “Chemical Synthesis, Proper Folding, Nav Channel Selectivity Profile and Analgesic Properties of the Spider Peptide Phlotoxin 1” (Toxins, 2019)
Bridge positions count the residues as written; N and C are the ends. Peptide text beside a SMILES is read from it.

Assays:
human Nav1.7 = biological target: T1, human Nav1.7 (Homo sapiens, UniProt Q15858); assay: Automated patch-clamp (Nanion SyncroPatch 384PE) on CHO cells expressing human Nav1.7; format: cell-based; details: for time constant of inhibition: mono-exponential fit
T1 construct: expressed in transfected cells
T1 sequence (Q15858 whole entry): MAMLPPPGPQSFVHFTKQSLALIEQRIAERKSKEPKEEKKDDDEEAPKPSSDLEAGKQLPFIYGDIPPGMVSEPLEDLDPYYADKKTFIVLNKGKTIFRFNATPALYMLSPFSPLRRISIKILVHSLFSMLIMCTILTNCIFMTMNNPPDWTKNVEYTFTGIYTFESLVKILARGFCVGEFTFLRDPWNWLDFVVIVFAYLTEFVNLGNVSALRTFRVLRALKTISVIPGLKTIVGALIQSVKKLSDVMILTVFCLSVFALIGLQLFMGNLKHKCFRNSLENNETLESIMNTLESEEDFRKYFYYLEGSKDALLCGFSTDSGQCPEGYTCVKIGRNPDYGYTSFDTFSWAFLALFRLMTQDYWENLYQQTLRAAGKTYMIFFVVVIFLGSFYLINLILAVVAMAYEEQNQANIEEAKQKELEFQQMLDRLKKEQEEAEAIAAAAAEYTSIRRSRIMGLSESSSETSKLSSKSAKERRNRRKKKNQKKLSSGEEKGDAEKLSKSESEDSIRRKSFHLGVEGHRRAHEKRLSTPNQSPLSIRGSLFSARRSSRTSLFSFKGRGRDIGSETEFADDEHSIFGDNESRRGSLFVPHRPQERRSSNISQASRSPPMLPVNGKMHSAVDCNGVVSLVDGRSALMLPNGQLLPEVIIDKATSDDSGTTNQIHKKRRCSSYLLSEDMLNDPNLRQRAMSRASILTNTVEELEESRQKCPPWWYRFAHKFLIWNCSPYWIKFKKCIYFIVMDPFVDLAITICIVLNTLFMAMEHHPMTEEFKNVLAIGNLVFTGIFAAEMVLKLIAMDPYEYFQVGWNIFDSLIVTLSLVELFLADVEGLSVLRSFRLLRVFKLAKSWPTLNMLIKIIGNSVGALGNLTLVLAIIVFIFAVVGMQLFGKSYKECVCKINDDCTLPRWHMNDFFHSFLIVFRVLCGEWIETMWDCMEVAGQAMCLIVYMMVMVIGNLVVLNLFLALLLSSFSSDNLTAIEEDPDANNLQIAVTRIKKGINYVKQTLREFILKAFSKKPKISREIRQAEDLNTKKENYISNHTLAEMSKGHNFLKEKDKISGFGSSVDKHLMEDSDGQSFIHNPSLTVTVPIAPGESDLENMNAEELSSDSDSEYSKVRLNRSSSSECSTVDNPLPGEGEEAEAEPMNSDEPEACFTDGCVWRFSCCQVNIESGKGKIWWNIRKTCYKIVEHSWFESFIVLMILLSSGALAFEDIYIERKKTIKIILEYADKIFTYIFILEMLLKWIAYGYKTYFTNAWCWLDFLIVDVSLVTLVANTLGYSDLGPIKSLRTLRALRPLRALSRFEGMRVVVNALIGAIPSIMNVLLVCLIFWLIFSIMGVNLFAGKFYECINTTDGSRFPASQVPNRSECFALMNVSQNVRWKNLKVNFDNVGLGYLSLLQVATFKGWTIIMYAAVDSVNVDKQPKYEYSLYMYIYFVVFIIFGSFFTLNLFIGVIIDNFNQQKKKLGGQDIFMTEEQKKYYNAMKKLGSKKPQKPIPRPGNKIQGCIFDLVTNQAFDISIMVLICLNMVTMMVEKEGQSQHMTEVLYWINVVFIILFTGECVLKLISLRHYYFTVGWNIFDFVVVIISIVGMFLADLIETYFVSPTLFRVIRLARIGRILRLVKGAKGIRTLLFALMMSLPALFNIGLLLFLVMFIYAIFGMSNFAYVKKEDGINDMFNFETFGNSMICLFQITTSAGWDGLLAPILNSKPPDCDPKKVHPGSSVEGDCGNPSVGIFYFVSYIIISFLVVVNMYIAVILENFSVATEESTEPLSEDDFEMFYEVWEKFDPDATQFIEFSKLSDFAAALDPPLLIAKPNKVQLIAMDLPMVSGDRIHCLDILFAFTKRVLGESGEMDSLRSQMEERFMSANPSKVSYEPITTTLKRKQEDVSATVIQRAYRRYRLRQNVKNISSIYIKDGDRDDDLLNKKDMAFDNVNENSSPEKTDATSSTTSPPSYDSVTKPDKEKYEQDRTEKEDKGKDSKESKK
From the text: We used a CHO mammalian cell line expressing the human Nav1.7 instead of Xenopus oocytes for the pharmacological evaluation. […] 100-ms pulses from −100 mV to −10 mV were applied at a frequency of 0.2 Hz and various concentrations of PhlTx1 were applied to the cells. […] Using a manual patch clamp, which is better suited to investigate current recovery from block than an automated patch clamp that requires several washing steps, we investigated the reversibility properties of a PhlTx1 block.
CHO cells stably expressing the human Nav1.7 cells were cultured in Dulbecco’s Modified Eagle’s Medium (DMEM) supplemented with 10% fetal calf serum, 1 mM pyruvic acid, 4 mM glutamine, 10 IU/mL penicillin and 10 μg/mL streptomycin (Gibco, Grand Island, NY, USA), and incubated at 37 °C in a 5% CO2 atmosphere. For automated patch-clamp recordings, cells were detached with trypsin and floating single cells were diluted (~300,000 cells/mL) in medium contained (in mM): 4 KCl, 140 NaCl, 5 Glucose, 10 HEPES (pH 7.4, osmolarity 290 mOsm).
Chips with single-hole and high-resistance (~6–7 MΩ) were used for CHO cell recordings. Voltage pulses and whole-cell recordings were achieved using the PatchControl384 v1.5.2 software (Nanion, Munich, Germany) and the Biomek v1.0 interface (Beckman Coulter). Prior recordings, dissociated cells were shaken at 60 RPM in a cell hotel reservoir at 10 °C. After cell catching, sealing, whole-cell formation, liquid application, recording, and data acquisition were all performed sequentially and automatically. […] Whole-cell experiments were done at −100 mV holding potential and at room temperature (18–22 °C), while currents triggered at −10 mV test potential were sampled at 20 kHz. Stimulation frequency was set at 0.2 Hz. Toxins were prepared at various concentrations in the extracellular solution, itself supplemented with 0.3% BSA. […] Compound solutions were diluted 3 times in the patch-clamp recording well by adding 30 μL to 60 μL external solution to reach the final reported concentration and the test volume of 90 μL. Percentages of current inhibitions were measured at the end of a 12- to 15-min application time (12-min for fast blocking toxins; 15-min for slow blocking ones). A single concentration of peptide was tested on each cell for building the full-inhibition curves.

Kv3.4 = assay: Ion channel selectivity screen, voltage-clamp, heterologous expression in Xenopus laevis oocytes and/or COS cells; format: cell-based; details: 1 μM PhlTx1

`CC(C)C[C@@H]1NC(=O)[C@@H](NC(=O)[C@H](C)N)CSSC[C@@H]2NC(=O)[C@@H]3CSSC[C@@H](C(=O)N[C@@H](CCCNC(=N)N)C(=O)N[C@@H](Cc4ccc(O)cc4)C(=O)N[C@@H](CCCCN)C(=O)N[C@@H](CC(C)C)C(=O)N[C@@H](Cc4ccccc4)C(=O)O)NC(=O)[C@H](Cc4c[nH]c5ccccc45)NC(=O)[C@@H]4CCCN4C(=O)[C@H](Cc4ccc(O)cc4)NC(=O)[C@H](CCCCN)NC(=O)[C@H](Cc4c[nH]c5ccccc45)NC(=O)[C@H](CCC(=O)O)NC(=O)[C@H](CSSC[C@H](NC(=O)[C@H](CO)NC(=O)[C@H](CC(=O)O)NC(=O)[C@H](Cc4c[nH]c5ccccc45)NC(=O)[C@H](CCC(N)=O)NC(=O)CNC1=O)C(=O)N[C@@H](CC(=O)O)C(=O)N1CCC[C@H]1C(=O)N[C@@H](CCCCN)C(=O)N[C@@H](C)C(=O)N[C@@H](CO)C(=O)N[C@@H](CCCCN)C(=O)N3)NC(=O)[C@H](C)NC(=O)[C@H](Cc1ccc(O)cc1)NC(=O)[C@H](CC(N)=O)NC(=O)[C@@H]1CCCN1C2=O` [PhlTx1, Phlotoxin-1] (H-ACLGQWDSCDPKASKCCPNYACEWKYPWCRYKLF-OH; disulfide 2-17, 9-22, 16-29; N-terminus and C-terminus assumed) was tested, and the IC50 (human Nav1.7) was 0.039 µM, the “time constant of inhibition” value (human Nav1.7; 33 nM, n = 4) was 253 s and the “block of Nav1.7 inward current” value (human Nav1.7; 100 nM toxin, end of application (about 12-13 min), CHO hNav1.7) was “above 50%”. For the same molecule, the “time constant of inhibition (τ)” value (human Nav1.7; 100 nM, mono-exponential fit (PhlTx1 n = 8)) was 159 s, the “time constant of inhibition” value (human Nav1.7; 333 nM, n = 6) was 97 s and the “c value of mono-exponential decay fit (block not complete)” value (human Nav1.7; 1 μM PhlTx1, normalized current) was 0.09. The “time constant of inhibition” value (human Nav1.7; 1 μM, n = 8) was 36 s, the Hill value (human Nav1.7; same dose-response fit as IC50, CHO hNav1.7 automated patch-clamp) was 1.53 and the highest achievable inhibition (human Nav1.7; two most efficient concentrations (333 nM and 1 μM)) was 85%–92%. For the same molecule, the “current inhibition at the voltage of maximum ion flux” value (Kv3.4) was ~20%.
